The source of these data is PMC5740388, “In Vitro Antibacterial Properties of Cefiderocol, a Novel Siderophore Cephalosporin, against Gram-Negative Bacteria” (Antimicrobial Agents and Chemotherapy, 2017).

SMILES strings stand for the structures. Where two headings read alike, the source gives them in different places.

Assay in all cases: competition with […]benzylpenicillin for PBPs
Holding throughout (assay type): binding

In assay [1] the target is T1, PBP2 of K. pneumoniae SR22291 (Klebsiella pneumoniae, UniProt A6T696).
T1 construct: gene mrdA
T1 sequence (A6T696 1-633): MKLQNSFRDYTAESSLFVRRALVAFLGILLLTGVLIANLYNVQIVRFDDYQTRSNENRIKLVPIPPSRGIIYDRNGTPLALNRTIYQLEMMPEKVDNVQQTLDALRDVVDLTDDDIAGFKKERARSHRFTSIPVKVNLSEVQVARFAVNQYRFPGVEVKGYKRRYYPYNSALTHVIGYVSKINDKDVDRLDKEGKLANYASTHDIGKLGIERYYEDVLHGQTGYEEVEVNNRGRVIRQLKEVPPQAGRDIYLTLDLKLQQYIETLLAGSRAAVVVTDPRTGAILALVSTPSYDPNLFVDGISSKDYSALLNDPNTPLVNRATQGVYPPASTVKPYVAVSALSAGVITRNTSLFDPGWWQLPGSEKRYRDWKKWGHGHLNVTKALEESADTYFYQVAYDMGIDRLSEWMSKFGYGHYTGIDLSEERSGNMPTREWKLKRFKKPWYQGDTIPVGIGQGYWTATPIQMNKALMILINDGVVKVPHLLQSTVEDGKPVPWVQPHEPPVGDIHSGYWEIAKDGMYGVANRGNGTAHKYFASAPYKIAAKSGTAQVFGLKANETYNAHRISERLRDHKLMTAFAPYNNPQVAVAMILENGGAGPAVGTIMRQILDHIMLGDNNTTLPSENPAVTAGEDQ
Conditions: covalent.

The target of assay [2] is T2, PBP1a of E. coli NIHJ JC-2 (Escherichia coli, UniProt P02918).
T2 construct: gene mrcA
T2 sequence (P02918 whole entry): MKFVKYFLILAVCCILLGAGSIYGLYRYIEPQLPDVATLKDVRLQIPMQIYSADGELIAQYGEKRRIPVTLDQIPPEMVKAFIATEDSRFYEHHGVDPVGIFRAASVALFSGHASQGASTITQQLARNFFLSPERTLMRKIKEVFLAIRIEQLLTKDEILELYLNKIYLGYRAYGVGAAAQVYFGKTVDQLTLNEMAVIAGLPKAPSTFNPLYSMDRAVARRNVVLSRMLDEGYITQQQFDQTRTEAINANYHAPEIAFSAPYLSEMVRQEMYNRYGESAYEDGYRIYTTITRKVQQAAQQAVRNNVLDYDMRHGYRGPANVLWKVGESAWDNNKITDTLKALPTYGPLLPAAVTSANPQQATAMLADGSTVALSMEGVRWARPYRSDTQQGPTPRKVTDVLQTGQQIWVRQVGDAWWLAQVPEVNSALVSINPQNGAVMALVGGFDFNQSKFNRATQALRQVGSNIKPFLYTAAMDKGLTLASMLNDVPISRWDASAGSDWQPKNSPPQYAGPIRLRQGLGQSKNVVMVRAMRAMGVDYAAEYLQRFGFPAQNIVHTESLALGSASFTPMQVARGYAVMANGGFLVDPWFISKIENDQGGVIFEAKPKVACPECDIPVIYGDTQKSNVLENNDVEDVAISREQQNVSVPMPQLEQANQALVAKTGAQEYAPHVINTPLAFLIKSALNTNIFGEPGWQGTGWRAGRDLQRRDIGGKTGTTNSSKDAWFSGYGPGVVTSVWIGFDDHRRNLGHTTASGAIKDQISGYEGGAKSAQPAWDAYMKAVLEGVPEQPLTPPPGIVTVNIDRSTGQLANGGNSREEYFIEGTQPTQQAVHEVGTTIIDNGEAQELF
Conditions: covalent.

Assay [3] has as its target T3, PBP1b of P. aeruginosa ATCC 27853 (Pseudomonas aeruginosa, UniProt G3XD31).
T3 construct: gene mrcB
T3 sequence (G3XD31 1-774): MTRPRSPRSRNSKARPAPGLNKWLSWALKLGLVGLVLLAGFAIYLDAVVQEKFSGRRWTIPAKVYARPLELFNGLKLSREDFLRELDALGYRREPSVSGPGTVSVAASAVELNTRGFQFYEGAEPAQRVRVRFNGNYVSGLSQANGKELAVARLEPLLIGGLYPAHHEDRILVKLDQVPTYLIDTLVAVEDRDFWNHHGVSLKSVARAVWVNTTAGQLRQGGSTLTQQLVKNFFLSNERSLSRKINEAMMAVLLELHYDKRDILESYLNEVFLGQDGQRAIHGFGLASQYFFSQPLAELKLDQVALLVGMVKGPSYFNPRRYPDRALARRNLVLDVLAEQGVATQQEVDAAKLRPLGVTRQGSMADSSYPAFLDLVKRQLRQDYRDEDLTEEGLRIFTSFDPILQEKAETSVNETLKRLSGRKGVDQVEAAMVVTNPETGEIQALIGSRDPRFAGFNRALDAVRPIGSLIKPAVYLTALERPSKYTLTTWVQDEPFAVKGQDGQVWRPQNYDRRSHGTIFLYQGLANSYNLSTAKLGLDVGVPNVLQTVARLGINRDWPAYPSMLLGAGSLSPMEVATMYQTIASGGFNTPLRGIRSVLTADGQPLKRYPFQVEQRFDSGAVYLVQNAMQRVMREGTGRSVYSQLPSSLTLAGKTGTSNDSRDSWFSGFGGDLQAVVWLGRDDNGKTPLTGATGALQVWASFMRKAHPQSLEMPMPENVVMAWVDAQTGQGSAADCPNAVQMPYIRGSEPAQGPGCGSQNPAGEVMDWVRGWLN
The following applies: covalent; read-out: IC50 (μg/ml) / Ceftazidime.

Assay [4] concerns the target T4, PBP1b of E. coli NIHJ JC-2 (Escherichia coli, UniProt P02919).
T4 construct: gene mrcB
The following applies: covalent.

The target of assay [5] is T5, PBP1a of P. aeruginosa ATCC 27853 (Pseudomonas aeruginosa, UniProt Q07806).
T5 construct: gene mrcA
T5 sequence (Q07806 whole entry): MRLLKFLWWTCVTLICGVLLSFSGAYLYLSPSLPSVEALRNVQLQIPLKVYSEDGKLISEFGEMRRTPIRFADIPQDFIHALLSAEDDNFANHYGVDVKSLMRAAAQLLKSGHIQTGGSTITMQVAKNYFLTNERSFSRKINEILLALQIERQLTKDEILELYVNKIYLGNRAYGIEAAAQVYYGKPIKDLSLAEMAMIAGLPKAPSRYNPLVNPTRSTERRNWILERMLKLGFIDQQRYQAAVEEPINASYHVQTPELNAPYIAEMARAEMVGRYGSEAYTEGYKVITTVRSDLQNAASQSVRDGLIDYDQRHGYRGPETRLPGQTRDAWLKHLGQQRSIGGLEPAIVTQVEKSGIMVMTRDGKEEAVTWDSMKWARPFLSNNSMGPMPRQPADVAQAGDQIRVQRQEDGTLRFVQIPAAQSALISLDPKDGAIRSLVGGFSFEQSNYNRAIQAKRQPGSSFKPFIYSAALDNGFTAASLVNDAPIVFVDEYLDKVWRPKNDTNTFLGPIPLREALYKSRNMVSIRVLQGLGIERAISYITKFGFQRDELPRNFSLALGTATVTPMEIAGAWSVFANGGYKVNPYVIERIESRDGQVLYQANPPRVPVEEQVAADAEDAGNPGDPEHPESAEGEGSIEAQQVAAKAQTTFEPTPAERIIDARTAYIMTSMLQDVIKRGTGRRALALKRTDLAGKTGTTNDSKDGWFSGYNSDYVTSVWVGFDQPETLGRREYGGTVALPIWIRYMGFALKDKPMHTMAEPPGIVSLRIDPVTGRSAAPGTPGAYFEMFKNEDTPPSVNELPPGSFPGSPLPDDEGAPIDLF
Conditions: covalent.

The target of assay [6] is T6, PBP3 of E. coli NIHJ JC-2 (Escherichia coli, UniProt P0AD68).
T6 construct: gene ftsI
T6 sequence (P0AD68 1-577): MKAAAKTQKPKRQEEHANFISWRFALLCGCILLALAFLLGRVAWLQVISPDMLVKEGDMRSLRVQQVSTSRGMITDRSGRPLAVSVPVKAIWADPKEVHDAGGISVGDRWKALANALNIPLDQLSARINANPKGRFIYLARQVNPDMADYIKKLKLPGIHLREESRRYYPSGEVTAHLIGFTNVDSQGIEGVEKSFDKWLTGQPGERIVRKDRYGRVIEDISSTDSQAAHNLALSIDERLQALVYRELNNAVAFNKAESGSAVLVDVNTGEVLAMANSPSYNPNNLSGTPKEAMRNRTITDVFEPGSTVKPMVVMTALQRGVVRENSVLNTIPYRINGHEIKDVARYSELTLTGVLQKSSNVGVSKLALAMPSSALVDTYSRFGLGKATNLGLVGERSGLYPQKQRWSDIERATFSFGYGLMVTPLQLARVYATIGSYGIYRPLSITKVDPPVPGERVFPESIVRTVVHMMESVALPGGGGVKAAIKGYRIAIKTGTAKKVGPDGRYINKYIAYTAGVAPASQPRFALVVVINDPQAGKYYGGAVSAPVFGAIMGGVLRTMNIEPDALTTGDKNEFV
Conditions: covalent.

The target of assay [7] is T7, PBP4 of P. aeruginosa ATCC 27853 (Pseudomonas aeruginosa, UniProt Q9HZG1).
T7 construct: gene PA3047
T7 sequence (Q9HZG1 entry or part of it): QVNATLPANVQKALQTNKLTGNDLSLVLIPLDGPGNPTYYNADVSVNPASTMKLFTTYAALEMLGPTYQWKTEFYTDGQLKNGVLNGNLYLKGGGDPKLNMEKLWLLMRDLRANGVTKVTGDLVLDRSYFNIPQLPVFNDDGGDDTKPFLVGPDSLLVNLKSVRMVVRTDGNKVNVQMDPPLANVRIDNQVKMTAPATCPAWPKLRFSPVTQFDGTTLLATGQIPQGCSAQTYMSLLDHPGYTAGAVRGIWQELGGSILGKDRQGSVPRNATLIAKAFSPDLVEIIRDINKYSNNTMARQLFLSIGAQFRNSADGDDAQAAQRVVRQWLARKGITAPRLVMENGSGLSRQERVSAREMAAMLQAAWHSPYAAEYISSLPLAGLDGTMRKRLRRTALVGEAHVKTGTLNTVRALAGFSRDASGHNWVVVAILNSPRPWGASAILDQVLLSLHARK
The following applies: covalent; read-out: IC50 (μg/ml) / P. aeruginosa ATCC 27853 / Cefiderocol.

The target in assay [8] is T8, PBP3 of K. pneumoniae SR22291 (Klebsiella pneumoniae, UniProt A0A0H3GN85).
T8 construct: gene ftsI
T8 sequence (A0A0H3GN85 1-588): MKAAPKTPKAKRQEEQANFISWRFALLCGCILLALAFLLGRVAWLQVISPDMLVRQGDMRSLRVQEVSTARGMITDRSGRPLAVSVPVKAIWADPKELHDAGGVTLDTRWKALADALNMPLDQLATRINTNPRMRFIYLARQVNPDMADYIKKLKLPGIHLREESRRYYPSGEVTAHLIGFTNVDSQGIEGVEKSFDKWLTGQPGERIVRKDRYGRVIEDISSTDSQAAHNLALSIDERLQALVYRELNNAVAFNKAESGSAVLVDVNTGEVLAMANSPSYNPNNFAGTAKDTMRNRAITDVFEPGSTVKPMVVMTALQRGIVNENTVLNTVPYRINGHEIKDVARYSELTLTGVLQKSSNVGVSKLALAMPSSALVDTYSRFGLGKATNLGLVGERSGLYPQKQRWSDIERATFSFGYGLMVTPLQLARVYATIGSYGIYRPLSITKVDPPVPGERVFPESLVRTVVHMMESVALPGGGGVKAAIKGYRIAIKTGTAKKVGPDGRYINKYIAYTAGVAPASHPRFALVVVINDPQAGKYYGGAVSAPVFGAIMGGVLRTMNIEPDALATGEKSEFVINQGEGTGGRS
The following applies: covalent.

Where [9] appears, read: read-out: IC50 (μg/ml) / K. pneumoniae SR22291 / Cefiderocol (converted).
Where [10] appears, read: read-out: IC50 (μg/ml) / E. coli NIHJ JC-2 / Cefiderocol (converted).
Setting [11] is: read-out: IC50 (μg/ml) / K. pneumoniae SR22291 / Ceftazidime (converted).
The mark [12] stands for this setting: read-out: IC50 (μg/ml) / E. coli NIHJ JC-2 / Ceftazidime.

T4 sequence (P02919 whole entry): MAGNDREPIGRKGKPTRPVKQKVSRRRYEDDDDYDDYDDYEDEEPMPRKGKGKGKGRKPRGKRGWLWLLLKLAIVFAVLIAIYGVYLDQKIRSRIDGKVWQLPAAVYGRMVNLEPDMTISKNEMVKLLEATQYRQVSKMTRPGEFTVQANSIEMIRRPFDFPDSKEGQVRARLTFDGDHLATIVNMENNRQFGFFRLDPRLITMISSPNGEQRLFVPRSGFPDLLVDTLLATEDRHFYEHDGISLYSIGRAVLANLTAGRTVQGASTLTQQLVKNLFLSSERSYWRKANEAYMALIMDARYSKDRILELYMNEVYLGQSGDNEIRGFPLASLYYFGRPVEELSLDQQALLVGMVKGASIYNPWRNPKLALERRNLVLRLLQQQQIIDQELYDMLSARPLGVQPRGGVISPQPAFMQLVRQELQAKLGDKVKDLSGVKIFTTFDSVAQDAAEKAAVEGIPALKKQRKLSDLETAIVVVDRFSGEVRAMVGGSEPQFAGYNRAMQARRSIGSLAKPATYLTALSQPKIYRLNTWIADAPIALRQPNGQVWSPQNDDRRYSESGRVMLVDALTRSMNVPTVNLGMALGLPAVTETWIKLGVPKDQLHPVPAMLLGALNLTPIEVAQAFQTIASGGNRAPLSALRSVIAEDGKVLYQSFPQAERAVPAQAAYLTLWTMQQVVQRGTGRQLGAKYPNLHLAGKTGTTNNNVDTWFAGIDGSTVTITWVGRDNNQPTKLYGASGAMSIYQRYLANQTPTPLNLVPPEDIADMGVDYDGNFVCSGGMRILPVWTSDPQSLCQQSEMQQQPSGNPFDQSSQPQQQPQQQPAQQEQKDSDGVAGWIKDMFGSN

For `CC(C)(O/N=C(\C(=O)N[C@@H]1C(=O)N2C(C(=O)[O-])=C(C[N+]3(CCNC(=O)c4ccc(O)c(O)c4Cl)CCCC3)CS[C@H]12)c1csc(N)n1)C(=O)O` [cefiderocol], the IC50 in assay [1] (setting [9]) was 83.8 nM; in assay [2] (setting [10]), 5050 nM; in assay [3], more than 5320 nM; in assay [4] (setting [10]), 4480 nM; in assay [5] (read-out: IC50 (μg/ml) / P. aeruginosa ATCC 27853 / Cefiderocol (converted)) it was 1130 nM; in assay [6] (setting [10]) it was 53.2 nM. Also, the IC50 is more than 5320 nM in assay [7] and 82.4 nM in assay [8] (setting [9]).
With `CC(C)(O/N=C(\C(=O)N[C@@H]1C(=O)N2C(C(=O)[O-])=C(C[n+]3ccccc3)CS[C@H]12)c1csc(N)n1)C(=O)O` [ceftazidime], the IC50 is 750 nM in assay [1] (setting [11]); more than 7320 nM in assay [2] (setting [12]); more than 7320 nM in assay [3]; more than 7320 nM in assay [4] (setting [12]); 6620 nM in assay [5] (read-out: IC50 (μg/ml) / P. aeruginosa ATCC 27853 / Ceftazidime (converted)); 823 nM in assay [6] (read-out: IC50 (μg/ml) / E. coli NIHJ JC-2 / Ceftazidime (converted)). The IC50 is more than 7320 nM in assay [7] and 402 nM in assay [8] (setting [11]).
